Assay results as given in patent US9351974B2, “Substituted pteridinones for the treatment of cancer” (OSI Pharmaceuticals, LLC, priority 2011, dated 2016).

These compounds were tested against T1, His-tagged full-length RSK2 (RPS6KA3) (Homo sapiens, UniProt P51812) (assay: RSK2 Omnia Assay for compound IC50 determination). Settings: ATP 15 μM, n=2, read-out: Mean RSK2 Biochem IC50.
T1 construct: His-tagged full-length RSK2 (RPS6KA3, Invitrogen PV3323); His; purchased Invitrogen PV3323
Format: biochemical
Outline: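 Initial-rate slopes from continuous kinetic reads were fitted to a four-parameter equation for IC50 (n=2). Ki was then derived by Cheng-Prusoff assuming ATP-competitive inhibition. Reactions contained 15 μM ATP (Km 16.3 μM), 5 μM Omnia ST Peptide 6, and […] in 50 mM HEPES pH 7.5, 10 mM MgCl2, 1 mM DTT, 1% DMSO. Compounds spanned 11 threefold steps, […] final.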

T1 sequence (P51812 whole entry): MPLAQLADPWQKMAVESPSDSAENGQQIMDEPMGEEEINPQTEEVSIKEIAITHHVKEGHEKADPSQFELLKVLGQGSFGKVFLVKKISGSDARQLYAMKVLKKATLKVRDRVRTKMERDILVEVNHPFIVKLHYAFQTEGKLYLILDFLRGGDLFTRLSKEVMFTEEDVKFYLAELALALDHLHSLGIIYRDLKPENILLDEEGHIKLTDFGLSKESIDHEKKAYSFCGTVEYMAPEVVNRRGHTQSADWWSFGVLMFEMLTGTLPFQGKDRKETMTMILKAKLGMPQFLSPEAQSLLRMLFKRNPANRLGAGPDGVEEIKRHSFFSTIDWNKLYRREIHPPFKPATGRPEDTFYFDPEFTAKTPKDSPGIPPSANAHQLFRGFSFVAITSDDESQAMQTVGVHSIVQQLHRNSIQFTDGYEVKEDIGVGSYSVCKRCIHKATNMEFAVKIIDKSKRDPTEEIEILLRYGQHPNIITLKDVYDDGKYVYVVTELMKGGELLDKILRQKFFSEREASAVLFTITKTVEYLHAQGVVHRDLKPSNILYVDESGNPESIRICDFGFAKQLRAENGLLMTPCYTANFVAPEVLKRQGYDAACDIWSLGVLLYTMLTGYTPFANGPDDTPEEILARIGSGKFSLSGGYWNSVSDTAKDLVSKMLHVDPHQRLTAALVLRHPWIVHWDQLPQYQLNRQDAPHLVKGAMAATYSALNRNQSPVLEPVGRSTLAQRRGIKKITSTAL

| Compound | IC50 |
| --- | --- |
| (7R)-8-cyclohexyl-2-[(7-fluoro-1H-indazol-5-yl)amino]-7-methyl-5-[4-(morpholin-4-yl)phenyl]-7,8-dihydropteridin-6(5H)-one [compound 134] | ≤ 100 nM |
| COc1ccc(N2C(=O)[C@@H](C)N(C3CCCCC3)c3nc(NCc4cn[nH]c4)ncc32)cc1OC [compound 163] | > 1000 nM |
| C[C@@H]1C(=O)N(c2cccc(C#N)c2)c2cnc(Nc3ccccc3)nc2N1C1CCCCC1 [compound 156, 3-[(7R)-8-cyclohexyl-7-methyl-6-oxo-2-(phenylamino)-7,8-dihydropteridin-5(6H)-yl]benzonitrile] | 100 to 1000 nM |
| CC(C)CCn1c(=O)c(=O)n(-c2ccccc2)c2cnc(Nc3ccc4c(c3)CC(=O)N4)nc21 [Example 306, 8-(3-methylbutyl)-2-[(2-oxo-2,3-dihydro-1H-indol-5-yl)amino]-5-phenyl-5,8-dihydropteridine-6,7-dione] | > 1000 nM |
| COc1ccc(N2C(=O)[C@@H](C)N(C3CCCCC3)c3nc(NCCc4cn[nH]c4)ncc32)cc1OC [compound 170] | > 1000 nM |
| C[C@@H]1C(=O)N(c2cccc(C#N)c2)c2cnc(Nc3ccc4[nH]ncc4n3)nc2N1C1CCCCC1 [compound 167, 3-[(7R)-8-cyclohexyl-7-methyl-6-oxo-2-(1H-pyrazolo[4,3-b]pyridin-5-ylamino)-7,8-dihydropteridin-5(6H)-yl]benzonitrile] | 100 to 1000 nM |
| C[C@@H]1C(=O)N(c2cccc(C#N)c2)c2cnc(Nc3cc(F)c4[nH]ncc4c3)nc2N1[C@H]1CC[C@@H](C)CC1 [compound 236, 3-[(7R)-2-[(7-fluoro-1H-indazol-5-yl)amino]-7-methyl-8-(cis-4-methylcyclohexyl)-6-oxo-7,8-dihydropteridin-5(6H)-yl]benzonitrile] | ≤ 100 nM |
| COc1ccc(N2C(=O)[C@@H](C)N(C3CCCCC3)c3nc(Nc4ccc5[nH]ncc5c4)ncc32)cc1OC [compound 111, (7R)-8-cyclohexyl-5-(3,4-dimethoxyphenyl)-2-(1H-indazol-5-ylamino)-7-methyl-7,8-dihydropteridin-6(5H)-one] | ≤ 100 nM |
| C[C@@H]1C(=O)N(c2cccc(C#N)c2)c2cnc(Nc3ccc(S(N)(=O)=O)cc3)nc2N1C1CCC(F)(F)CC1 [compound 273, 4-{[(7R)-5-(3-cyanophenyl)-8-(4,4-difluorocyclohexyl)-7-methyl-6-oxo-5,6,7,8-tetrahydropteridin-2-yl]amino}benzenesulfonamide] | ≤ 100 nM |
| COc1ccc(N2C(=O)[C@@H](C)N(C3CCOCC3)c3nc(Nc4ccc5[nH]nc(F)c5c4)ncc32)cc1OC [compound 187, (7R)-5-(3,4-dimethoxyphenyl)-2-[(3-fluoro-1H-indazol-5-yl)amino]-7-methyl-8-(tetrahydro-2H-pyran-4-yl)-7,8-dihydropteridin-6(5H)-one] | ≤ 100 nM |
| CC1C(=O)N(c2ccccc2)c2cnc(Nc3ccc4[nH]ncc4c3)nc2N1C1CCCCC1 (stereo not drawn) [Example 61, 8-cyclohexyl-2-(1H-indazol-5-ylamino)-7-methyl-5-phenyl-7,8-dihydropteridin-6(5H)-one] | ≤ 100 nM |
| C[C@@H]1C(=O)N(c2cccc(C#N)c2)c2cnc(Nc3ccc4c(c3)CC(=O)N4)nc2N1C1CCCCC1 [Example 51, 3-[(7R)-8-cyclohexyl-7-methyl-6-oxo-2-[(2-oxo-2,3-dihydro-1H-indol-5-yl)amino]-7,8-dihydropteridin-5(6H)-yl]benzonitrile] | ≤ 100 nM |
| C[C@@H]1C(=O)N(c2cccc(C#N)c2)c2cnc(Nc3ccc4[nH]ncc4c3)nc2N1[C@H]1CC[C@@H](O)CC1 [compound 309, 3-[(7R)-8-(cis-4-hydroxycyclohexyl)-2-(1H-indazol-5-ylamino)-7-methyl-6-oxo-7,8-dihydropteridin-5(6H)-yl]benzonitrile] | > 1000 nM |
| COc1ccc(N2C(=O)[C@@H](C)N(C3CCC4(CC3)CC4)c3nc(Nc4cc(F)c5[nH]ncc5c4)ncc32)cc1OC [Example 299, (7R)-5-(3,4-dimethoxyphenyl)-2-[(7-fluoro-1H-indazol-5-yl)amino]-7-methyl-8-(spiro[2.5]oct-6-yl)-7,8-dihydropteridin-6(5H)-one] | ≤ 100 nM |
| COc1ccc(N2C(=O)[C@@H](C)N(CCC(C)C)c3nc(Nc4cc(F)c5[nH]ncc5c4)ncc32)cc1OC [Example 85, (7R)-5-(3,4-dimethoxyphenyl)-2-[(7-fluoro-1H-indazol-5-yl)amino]-7-methyl-8-(3-methylbutyl)-7,8-dihydropteridin-6(5H)-one] | ≤ 100 nM |
| C[C@@H]1C(=O)N(c2cccc(C#N)c2)c2cnc(Nc3ccc4[nH]nc(F)c4c3)nc2N1C1CCCCC1 [compound 115, 3-[(7R)-8-cyclohexyl-2-[(3-fluoro-1H-indazol-5-yl)amino]-7-methyl-6-oxo-7,8-dihydropteridin-5(6H)-yl]benzonitrile] | ≤ 100 nM |

More lines, now with the values ahead:

| IC50 | Compound |
| --- | --- |
| ≤ 100 nM | CC[C@@H]1C(=O)N(c2cccc(F)c2)c2cnc(Nc3cc(F)c4[nH]ncc4c3)nc2N1C1CCCCC1 [compound 290, (7R)-8-cyclohexyl-7-ethyl-2-[(7-fluoro-1H-indazol-5-yl)amino]-5-(3-fluorophenyl)-7,8-dihydropteridin-6(5H)-one] |
| ≤ 100 nM | CCOc1ccc(N2C(=O)[C@@H](C)N(C3CCOCC3)c3nc(Nc4ccc5[nH]c(=O)oc5c4)ncc32)cc1C#N [compound 198, 2-Ethoxy-5-[(7R)-7-methyl-6-oxo-2-[(2-oxo-2,3-dihydro-1,3-benzoxazol-6-yl)amino]-8-(tetrahydro-2H-pyran-4-yl)-7,8-dihydropteridin-5(6H)-yl]benzonitrile] |
| ≤ 100 nM | C[C@@H]1C(=O)N(c2cccc(C#N)c2)c2cnc(Nc3cnc4[nH]ncc4c3)nc2N1C1CCC(F)(F)CC1 [compound 270, 3-[(7R)-8-(4,4-difluorocyclohexyl)-7-methyl-6-oxo-2-(1H-pyrazolo[3,4-b]pyridin-5-ylamino)-7,8-dihydropteridin-5(6H)-yl]benzonitrile] |
| ≤ 100 nM | C[C@@H]1C(=O)N(c2ccc3c(c2)OCO3)c2cnc(Nc3ccc4[nH]ncc4c3)nc2N1C1CCCCC1 [Example 39, (7R)-5-(1,3-benzodioxol-5-yl)-8-cyclohexyl-2-(1H-indazol-5-ylamino)-7-methyl-7,8-dihydropteridin-6(5H)-one] |
| ≤ 100 nM | CC(C)Oc1ccc(N2C(=O)[C@@H](C)N([C@H]3CC[C@H](C)CC3)c3nc(Nc4ccc5[nH]c(=O)oc5c4)ncc32)cc1C#N [compound 249, 5-[(7R)-7-methyl-8-(trans-4-methylcyclohexyl)-6-oxo-2-[(2-oxo-2,3-dihydro-1,3-benzoxazol-6-yl)amino]-7,8-dihydropteridin-5(6H)-yl]-2-(propan-2-yloxy)benzonitrile] |
| ≤ 100 nM | CO[C@H]1CC[C@H](N2c3nc(Nc4cnc5[nH]ncc5c4)ncc3N(c3cccc(C#N)c3)C(=O)[C@H]2C)CC1 [compound 231, 3-[(7R)-8-(trans-4-methoxycyclohexyl)-7-methyl-6-oxo-2-(1H-pyrazolo[3,4-b]pyridin-5-ylamino)-7,8-dihydropteridin-5(6H)-yl]benzonitrile] |
| ≤ 100 nM | CC(C)CCN1c2nc(Nc3ccc4[nH]ncc4c3)ncc2N(c2ccccc2)C(=O)[C@H]1C [Example 16, (7R)-2-(1H-indazol-5-ylamino)-7-methyl-8-(3-methylbutyl)-5-phenyl-7,8-dihydropteridin-6(5H)-one] |
| ≤ 100 nM | CO[C@H]1CC[C@H](N2c3nc(Nc4ccc5[nH]c(=O)oc5c4)ncc3N(c3cccc(C#N)c3)C(=O)[C@H]2C)CC1 [compound 229, 3-[(7R)-8-(trans-4-methoxycyclohexyl)-7-methyl-6-oxo-2-[(2-oxo-2,3-dihydro-1,3-benzoxazol-6-yl)amino]-7,8-dihydropteridin-5(6H)-yl]benzonitrile] |
| ≤ 100 nM | C[C@@H]1C(=O)N(c2ccc(N(C)C)nc2)c2cnc(Nc3cc(F)c4[nH]ncc4c3)nc2N1C1CCCCC1 [compound 143, (7R)-8-cyclohexyl-5-[6-(dimethylamino)pyridin-3-yl]-2-[(7-fluoro-1H-indazol-5-yl)amino]-7-methyl-7,8-dihydropteridin-6(5H)-one] |
| ≤ 100 nM | C[C@@H]1C(=O)N(c2cccc(C#N)c2)c2cnc(Nc3cc(F)c4[nH]ncc4c3)nc2N1[C@H]1CC[C@H](C)CC1 [compound 237, 3-[(7R)-2-[(7-fluoro-1H-indazol-5-yl)amino]-7-methyl-8-(trans-4-methylcyclohexyl)-6-oxo-7,8-dihydropteridin-5(6H)-yl]benzonitrile] |
| ≤ 100 nM | C[C@@H]1C(=O)N(c2ccc(N3CCOCC3)nc2)c2cnc(Nc3cc(F)c4[nH]ncc4c3)nc2N1C1CCC(C)(C)CC1 [Example 213, (7R)-8-(4,4-dimethylcyclohexyl)-2-[(7-fluoro-1H-indazol-5-yl)amino]-7-methyl-5-[6-(morpholin-4-yl)pyridin-3-yl]-7,8-dihydropteridin-6(5H)-one] |
| ≤ 100 nM | CO[C@H]1CC[C@H](N2c3nc(Nc4cc(F)c5[nH]ncc5c4)ncc3N(c3cccc(C#N)c3)C(=O)[C@H]2C)CC1 [compound 224, 3-[(7R)-2-[(7-fluoro-1H-indazol-5-yl)amino]-8-(trans-4-methoxycyclohexyl)-7-methyl-6-oxo-7,8-dihydropteridin-5(6H)-yl]benzonitrile] |
| ≤ 100 nM | C[C@@H]1C(=O)N(c2cccc(C#N)c2)c2cnc(Nc3cc(F)c4[nH]c(=O)oc4c3)nc2N1C1CCCCC1 [compound 169, 3-[(7R)-8-cyclohexyl-2-[(4-fluoro-2-oxo-2,3-dihydro-1,3-benzoxazol-6-yl)amino]-7-methyl-6-oxo-7,8-dihydropteridin-5(6H)-yl]benzonitrile] |
| ≤ 100 nM | C[C@@H]1C(=O)N(c2ccc(N3CCCCC3)nc2)c2cnc(Nc3cc(F)c4[nH]ncc4c3)nc2N1C1CCC(C)(C)CC1 [Example 215, (7R)-8-(4,4-dimethylcyclohexyl)-2-[(7-fluoro-1H-indazol-5-yl)amino]-7-methyl-5-[6-(piperidin-1-yl)pyridin-3-yl]-7,8-dihydropteridin-6(5H)-one] |
